Target: T1, ICDH1 (Rv3339c) (Mycobacterium tuberculosis, UniProt P9WKL1)
T1 construct: gene icd-1
Assay: NADPH formation at […] nm
Assay type: biochemical
Conditions: 2 mM NADP+, 0.25 mM DL-isocitrate, 10 mM MgCl2, 5 mM MnCl2, 20 mM Tris-HCl pH 7.5, room temperature

T1 sequence (P9WKL1 whole entry): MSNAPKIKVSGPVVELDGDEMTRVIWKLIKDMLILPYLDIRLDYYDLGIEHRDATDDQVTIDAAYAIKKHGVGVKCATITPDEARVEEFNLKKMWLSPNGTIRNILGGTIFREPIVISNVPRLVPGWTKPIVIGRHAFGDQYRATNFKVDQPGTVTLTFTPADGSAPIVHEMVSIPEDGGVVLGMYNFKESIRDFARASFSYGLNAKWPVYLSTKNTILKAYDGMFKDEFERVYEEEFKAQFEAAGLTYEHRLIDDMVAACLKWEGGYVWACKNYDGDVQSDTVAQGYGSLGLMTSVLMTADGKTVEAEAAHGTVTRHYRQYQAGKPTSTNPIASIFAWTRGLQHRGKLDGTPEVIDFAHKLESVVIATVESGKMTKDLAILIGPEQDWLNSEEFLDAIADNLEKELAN

Q: With `NC(=O)c1ccc[n+]([C@@H]2O[C@H](COP(=O)(O)OP(=O)(O)OC[C@H]3O[C@@H](n4cnc5c(N)ncnc54)[C@H](OP(=O)(O)O)[C@@H]3O)[C@@H](O)[C@H]2O)c1` [NADP^+] as the molecule, how does the “NADPH formation at 340 nm” value read?
A: monitoring the time dependent reduction of NADP^+ to NADPH

From publication PMC5428333, “Novel protein acetyltransferase, Rv2170, modulates carbon and energy metabolism in Mycobacterium tuberculosis” (Scientific Reports, 2017)
